Key:
[1] = cited from earlier work
[2] = behavioral observations / gross CNS effects in mice; format: in vivo, male mice (Swiss-Webster); conditions: 100 mg/kg ip, after injection of test compounds
Procedure: (§1) The mice were divided in groups of 10, keeping the group weights equal as far as possible. The quinazolones shown in Table 2 as well as methaqualone were injected ip (100 mg/kg) in a 5% aqueous suspension of gum acacia to one group of 10 animals. One hour after the administration of quinazolones, the mice were injected with pentylenetetrazol (90 mg/kg) sc under the loose skin of the back. […] The mice were then observed for the following 60 minutes for the occurrence of seizures. One episode of clonic spasm which persisted for a minimum period of 5 seconds was considered a threshold convulsion. Transient intermittent jerks or tremulousness were not taken into account. Animals devoid of even a threshold convulsion during the period of 60 minutes were considered protected. […] Mortality was recorded 24 hours after the pentylenetetrazol injection. After the injection of test compounds, behavioral observations were also made.

[3] = approximate LD50 in mice; conditions: mouse, in vivo, ip; male ICR mice, observed 24 hours
Procedure: (§2) Dose response and time response studies were performed with compound no. 2 by injecting it into a group of 10 male Swiss-Webster mice. In addition, a group of 10 male ICR mice were injected with different dosages of compound no. 2 to determine the approximate LD50.
Approximate LD50 was determined in male ICR mice.

[4] = therapeutic index compared with methaqualone; conditions: conclusion from Examples 6, 7 and 8
[5] = pentylenetetrazol-induced seizure in rats; format: in vivo; conditions: 50 mg/kg orally
Procedure: (§3) Compound No. 2 was also tested in rats. Four rats were treated with compound no. 2 at a dosage of 50 mg/kg orally. Anticonvulsant effects of compound no. […] The toxic symptoms were also observed. It can be seen from this table that compound no.

[6] = 24 hour mortality / toxicity in mice after test compound and pentylenetetrazol; format: in vivo, male mice (Swiss-Webster); conditions: for 24 Hour Mortality: 100 mg/kg ip, 24 hours after pentylenetetrazol injection, groups of 10; for toxicity at the effective dosage: Example 6, 100 mg/kg ip
Procedure: as §1, with “made. […] 2 and compound no.” for “made.”

[7] = toxic symptoms in rats; format: in vivo; conditions: 50 mg/kg orally
Procedure: as §3

[8] = pentylenetetrazol (90 mg/kg sc) induced seizures in mice, percent protection; format: in vivo, male mice (Swiss-Webster); conditions: for Percent Protection against pentylenetetrazol (dose response): pentylenetetrazol 90 mg/kg s.c. given 1 hour after; for Percent Protection: 100 mg/kg ip, pentylenetetrazol 90 mg/kg sc one hour later, observed 60 minutes (Table 3); for Percent Protection / protection against pentylenetetrazol seizures: mice; for Percent Protection against pentylenetetrazol (time response): pentylenetetrazol 90 mg/kg s.c.; for protection against pentylenetetrazol seizures: Example 6, 100 mg/kg ip
Procedure: as §1, with “made. […] 2 and compound no.” for “made.”
as §2

[9] = Maximal Electric Shock (MES) seizure in mice; format: in vivo; conditions: 30 mg/kg ip in mice
Procedure: In addition, compound no. 2 was also tested against Maximal Electric Shock (MES) seizure. Compound no.
(§4) Maximal electroshock seizures were elicited with a 60 cycle alternating current of 50mA intensity (5-7 times that necessary to elicit minimal electroshock seizures) delivered for 0.2 seconds via corneal electrodes. A drop of 0.9% saline was instilled in the eye prior to application of the electrodes in order to […]. Abolition of the hind limb tonic extension component of the seizure was defined as protection.

[10] = maximal electric shock seizures (MES) in rats; format: in vivo; conditions: 50 mg/kg orally
Procedure: as §3, §4

[11] = reference 3; cited from earlier work

For Cc1nc2ccccc2c(=O)n1-c1ccccc1C(F)(F)F [2-methyl-3-(2-trifluoromethylphenyl)-4-quinazolone], the “sedative effect compared with methaqualone” value ([1]; reference 4) is listed as “better sedative effect” and the “toxicity compared with methaqualone” value ([1]; reference 4) is listed as “lower toxicity”.
With Cc1cccnc1-n1c(C)nc2ccccc2c1=O [Compound 2, 2-Methyl-3-(3-methyl-2-pyridyl)-4-quinazolone] the “Behavioral Observations” value [2] was “mild sedation”, the LD50 at 24 h [3] was ~1000 mg/kg and the “therapeutic index versus methaqualone” value [4] was “higher therapeutic indices than methaqualone”. The “Percent protection against pentylenetetrazol” value ([5]; 0.25 Hr., three rats) was 33.3%, the “Percent protection against pentylenetetrazol” value ([5]; 0.5 Hr., four rats) was 75% and the “Percent protection against pentylenetetrazol” value ([5]; 1 Hr., four rats) was 25%. The “Percent protection against pentylenetetrazol” value ([5]; 4 Hr., four rats) was 25%, the “protection against pentylenetetrazol-induced seizure” value ([5]; all time periods, Example 8) was “protected against both MES and pentylenetetrazol-induced seizure at all time periods” and the “24 Hour Mortality” value [6] was 0. The “toxicity at the effective dosage” value [6] was “did not exhibit any toxicity”, the “Toxicity in percent rats” value ([7]; 0.25 Hr.) was 0% and the “Toxicity in percent rats” value ([7]; 0.5 Hr.) was 0%. For the same molecule, the “Toxicity in percent rats” value ([7]; 1 Hr.) was 0%, the “Toxicity in percent rats” value ([7]; 2 Hr.) was 0% and the “Toxicity in percent rats” value ([7]; 4 Hr.) was 0%. The toxic symptoms ([7]; rats, all time periods, Example 8) was “without exhibiting any toxic symptoms”, the “Percent Protection against pentylenetetrazol (dose response)” value (“Percent Protection … (dose response)” below) ([8]; 40 mg/kg i.p.) was 20% and the “Percent Protection … (dose response)” value ([8]; 60 mg/kg i.p.) was 80%. For the same molecule, the “Percent Protection … (dose response)” value ([8]; 80 mg/kg i.p.) was 90%, the “Percent Protection … (dose response)” value ([8]; 100 mg/kg i.p.) was 100% and the “Percent Protection” value [8] was 100%. The “Percent Protection against pentylenetetrazol (time response)” value (shortened to “Percent Protection … (time response)”) ([8]; 1 hr after injection, 100 mg/kg i.p.) was 100%, the “Percent Protection … (time response)” value ([8]; 2 hr after injection, 100 mg/kg i.p.) was 60% and the “Percent Protection … (time response)” value ([8]; 3 hr after injection, 100 mg/kg i.p.) was 0%. The “Percent Protection … (time response)” value ([8]; 4 hr after injection, 100 mg/kg i.p.) was 0%, the “protection against pentylenetetrazol seizures” value [8] was 100% and the “protection against MES” value [9] was 100%. The “Percent protection against MES” value ([10]; 0.25 Hr.) was 75%, the “Percent protection against MES” value ([10]; 0.5 Hr.) was 50% and the “Percent protection against MES” value ([10]; 1 Hr.) was 75%. The “Percent protection against MES” value ([10]; 2 Hr.) was 50%, the “Percent protection against MES” value ([10]; 4 Hr.) was 25% and the “protection against MES” value ([10]; all time periods, Example 8) was “protected against both MES and pentylenetetrazol-induced seizure at all time periods”.
For Cc1ccccc1-n1c(C)nc2ccccc2c1=O [Compound 1, 2-methyl-3-o-tolyl-4-quinazolone], the “24 Hour Mortality” value [6] is given as 0, the “Percent Protection” value [8] is given as 100% and the “metabolism in the body” value [11] is given as “metabolized in the body to the N^1 -oxide of the compound”. The abuse potential ([1]; in vivo) was “high abuse potential”.
With Cc1ccccc1-n1c(C)nc2cc(N)ccc2c1=O [Compound 14, 2-Methyl-3-o-tolyl-7-amino-4-quinazolone] the “Behavioral Observations” value [2] was “none”, the “therapeutic index versus methaqualone” value [4] was “higher therapeutic indices than methaqualone” and the “24 Hour Mortality” value [6] was 0. For the same molecule, the “toxicity at the effective dosage” value [6] was “did not exhibit any toxicity”, the “Percent Protection” value [8] was 100% and the “protection against pentylenetetrazol seizures” value [8] was 100%.

— patent publication US5283247A, “Anticonvulsant substituted quinazolones” (Research Corporation Technologies, Inc., priority 1992, dated 1994)
